Here are results for 36 molecules from US20250145601A1, “NOVEL BICYCLIC COMPOUNDS AS RAD51 INHIBITORS” (SATYA THERAPEUTICS, INC., priority 2022, published 2025).

Structures are written as SMILES. Where only a bound is given, the exact number is not on record here.

One assay concerns MDA MB 231 cells. Briefly: Antiproliferation assay in MDA MB 231 cells (Cell Titer Glo). It is filed as cell-based. The settings on record: Homo sapiens, MDA-MB-231, 216 h, MDAMB231 cell line, 9 day treatment, racemic compounds (Table 2). The procedure: Antiproliferation Assay in MDA MB 231 Cells MDA MB 231 cells were seeded in 96 well plate at a seeding density of 250 cells/well. The cells were allowed to settle overnight under standard incubator conditions (37° C., 5% CO2). Next day treatment with increasing dose of test compounds and reference compounds were done to the respective wells and the cells were further incubated under standard cell culture conditions for another 4 days. On the 5th day, media was replenished with fresh treatment and cells were incubated for a total of 9 day treatment period. On the day of termination, appropriate volume of Cell Titer Glo reagent was added to the treatment (and control) wells and the plates were kept on a plate shaker @300 RPM for 15 min. Luminiscence reading (RLU) was […] RLU is directly proportional to ATP content and is directly related to number of metabolically active cells in the respective well. Calculation: a. Blank Correction: RLU of the Wells Containing No Cells is Considered as Blank and Subtracted from all RLU of the Treated and Control Wells [formula]
Background: In ATP-based viability assays light output follows the ATP content of the culture.
Molecule `CCC(=O)N1N=C(c2c(C)c3ccsc3[nH]c2=O)CC1c1ccc(OC)cc1` (racemic) [Example 20, 5-(5-(4-Methoxyphenyl)-1-propionyl-4,5-dihydro-1H-pyrazol-3-yl)-4-methylthieno-[2,3-b]pyridin-6(7H)-one] yielded an inhibition at 10 µM of at least 50%.

In turn, `CCC(=O)N1N=C(c2c(C)c3ccsc3[nH]c2=O)CC1c1ccc(Cl)cc1` (racemic) [Example 28, 5-(5-(4-chlorophenyl)-1-propionyl-4,5-dihydro-1H-pyrazol-3-yl)-4-methylthieno[2,3-b]pyridin-6(7H)-one] came in with an inhibition at 10 µM of at least 50%.

`CCC(=O)N1N=C(c2c(C)c3ccsc3[nH]c2=O)CC1c1ccsc1` (racemic) [Example 33, 4-methyl-5-(1-propionyl-5-(thiophen-3-yl)-4,5-dihydro-1H-pyrazol-3-yl)thieno[2,3-b]pyridin-6(7H)-one] returned an inhibition at 10 µM of under 50%.

With `CCC(=O)N1N=C(c2c(C)c3ccsc3[nH]c2=O)CC1c1ccc(C)cc1` (racemic) [Example 37, 4-methyl-5-(1-propionyl-5-(p-tolyl)-4,5-dihydro-1H-pyrazol-3-yl)thieno[2,3-b]pyridin-6(7H)-one], the inhibition at 10 µM was at least 50%.

`CCC(=O)N1N=C(c2c(C)c3ccsc3[nH]c2=O)CC1c1ccc(C)nc1` (racemic) [Example 45, 4-methyl-5-(5-(6-methylpyridin-3-yl)-1-propionyl-4,5-dihydro-1H-pyrazol-3-yl)thieno[2,3-b]pyridin-6(7H)-one] yielded an inhibition at 10 µM of at least 50%.

`CCC(=O)N1N=C(c2c(C)c3ccccc3[nH]c2=O)CC1c1ccc(C)cc1` (racemic) [Example 60, 4-methyl-3-(1-propionyl-5-(p-tolyl)-4,5-dihydro-1H-pyrazol-3-yl)quinolin-2(1H)-one] registered an inhibition at 10 µM of at least 50%.

`CCC(=O)N1N=C(c2c(C)c3ccsc3[nH]c2=O)CC1c1ccc(C)cc1F` (racemic) [Example 66, 5-(5-(2-fluoro-4-methylphenyl)-1-propionyl-4,5-dihydro-1H-pyrazol-3-yl)-4-methylthieno[2,3-b]pyridin-6(7H)-one] came in with an inhibition at 10 µM of at least 50%.

`CCC(=O)N1N=C(c2c(C)c3ccncc3[nH]c2=O)CC1c1ccc(C)cc1` (racemic) [Example 74, 4-methyl-3-(1-propionyl-5-(p-tolyl)-4,5-dihydro-1H-pyrazol-3-yl)-1,7-naphthyridin-2(1H)-one] displayed an inhibition at 10 µM of at least 50%.

Turning to `CCC(=O)N1N=C(c2c(C)c3ccnc(C)c3[nH]c2=O)CC1c1ccc(C)cc1` (racemic) [Example 78, 4,8-dimethyl-3-(1-propionyl-5-(p-tolyl)-4,5-dihydro-1H-pyrazol-3-yl)-1,7-naphthyridin-2(1H)-one], the inhibition at 10 µM was at least 50%.

In turn, `CCC(=O)N1N=C(c2c(C)c3ccc(Cl)cc3[nH]c2=O)CC1c1ccc(C)cc1` (racemic) [Example 80, 7-chloro-4-methyl-3-(1-propionyl-5-(p-tolyl)-4,5-dihydro-1H-pyrazol-3-yl)quinolin-2(1H)-one] yielded an inhibition at 10 µM of at least 50%.

`CCC(=O)N1N=C(c2c(C)c3ccc(N4CCN(C)CC4)cc3[nH]c2=O)CC1c1ccc(C)cc1` (racemic) [Example 82, 4-methyl-7-(4-methylpiperazin-1-yl)-3-(1-propionyl-5-(p-tolyl)-4,5-dihydro-1H-pyrazol-3-yl)quinolin-2(1H)-one] registered an inhibition at 10 µM of at least 50%.

Turning to `CCC(=O)N1N=C(c2c(C)c3cc(Cl)ccc3[nH]c2=O)CC1c1ccc(OC)cc1` (stereo not drawn) [Example 1, 6-Chloro-3-(5-(4-methoxyphenyl)-1-propionyl-4,5-dihydro-1H-pyrazol-3-yl)-4-methylquinolin-2(1H)-one], the inhibition at 10 µM is at least 50%.

`COc1ccc(C2CC(c3c(C)c4cc(Cl)ccc4[nH]c3=O)=NN2C(=O)C2CC2)cc1` (stereo not drawn) [Example 2, 6-Chloro-3-(1-(cyclopropanecarbonyl)-5-(4-methoxyphenyl)-4,5-dihydro-1H-pyrazol-3-yl)-4-methylquinolin-2(1H)-one] showed an inhibition at 10 µM of at least 50%.

The molecule `COc1ccc(C2CC(c3c(C)c4cc(Cl)ccc4[nH]c3=O)=NN2C(=O)C2CCOCC2)cc1` (stereo not drawn) [Example 3, 6-chloro-3-(5-(4-methoxyphenyl)-1-(tetrahydro-2H-pyran-4-carbonyl)-4,5-dihydro-1H-pyrazol-3-yl)-4-methylquinolin-2(1H)-one] showed an inhibition at 10 µM of at least 50%.

`COc1ccc(C2CC(c3c(C)c4cc(Cl)ccc4[nH]c3=O)=NN2C(=O)C2CCOC2)cc1` (stereo not drawn) [Example 4, 6-chloro-3-(5-(4-methoxyphenyl)-1-(tetrahydrofuran-3-carbonyl)-4,5-dihydro-1H-pyrazol-3-yl)-4-methylquinolin-2(1H)-one]: the inhibition at 10 µM is at least 50%.

In turn, `COc1ccc(C2CC(c3c(C)c4cc(Cl)ccc4[nH]c3=O)=NN2C)cc1` (stereo not drawn) [Example 5, 6-Chloro-3-(5-(4-methoxyphenyl)-1-methyl-4,5-dihydro-1H-pyrazol-3-yl)-4-methylquinolin-2(1H)-one] registered an inhibition at 10 µM of under 50%.

Molecule `CCC(=O)N1N=C(c2c(C)c3cc(Cl)ccc3[nH]c2=O)CC1c1ccc2ccn(C)c2c1` (stereo not drawn) [Example 6, 6-Chloro-4-methyl-3-(5-(1-methyl-1H-indol-6-yl)-1-propionyl-4,5-dihydro-1H-pyrazol-3-yl)quinolin-2(1H)-one] gave an inhibition at 10 µM of at least 50%.

`CCC(=O)N1N=C(c2c(C)c3cc(Cl)ccc3[nH]c2=O)CC1c1ccc(OC)nc1` (stereo not drawn) [Example 7, 6-chloro-3-(5-(6-methoxypyridin-3-yl)-1-propionyl-4,5-dihydro-1H-pyrazol-3-yl)-4-methylquinolin-2(1H)-one]: the inhibition at 10 µM is at least 50%.

The molecule `CCC(=O)Nc1ccc(C2CC(c3c(C)c4cc(Cl)ccc4[nH]c3=O)=NN2C(=O)CC)cc1` (stereo not drawn) [Example 8, N-(4-(3-(6-chloro-4-methyl-2-oxo-1,2-dihydroquinolin-3-yl)-1-propionyl-4,5-dihydro-1H-pyrazol-5-yl)phenyl)propionamide] yielded an inhibition at 10 µM of at least 50%.

`CCC(=O)N1N=C(c2c(C)c3ncccc3[nH]c2=O)CC1c1ccc(OC)cc1` (stereo not drawn) [Example 9, 3-(5-(4-Methoxyphenyl)-1-propionyl-4,5-dihydro-1H-pyrazol-3-yl)-4-methyl-1,5-naphthyridin-2(1H)-one] yielded an inhibition at 10 µM of under 50%.

Molecule `CCC(=O)N1N=C(c2c(C)c3ccccc3[nH]c2=O)CC1c1ccc(OC)cc1` (stereo not drawn) [Example 11, 3-(5-(4-Methoxyphenyl)-1-propionyl-4,5-dihydro-1H-pyrazol-3-yl)-4-methylquinolin-2(1H)-one] came in with an inhibition at 10 µM of at least 50%.

Staying with this assay, now noted: Homo sapiens, MDA-MB-231, 216 h, MDAMB231 cell line, 9 day treatment, separated enantiomers A/B (Table 3).
Turning to `CCC(=O)N1N=C(c2c(C)c3ccsc3[nH]c2=O)CC1c1ccc(OC)cc1` (single isomer, unassigned) [Example 20A], the inhibition at 10 µM was at least 50%.

Regarding `CCC(=O)N1N=C(c2c(C)c3ccsc3[nH]c2=O)CC1c1ccc(Cl)cc1` (single isomer, unassigned) [Example 28B], the inhibition at 10 µM was at least 50%.

As for `CCC(=O)N1N=C(c2c(C)c3ccsc3[nH]c2=O)CC1c1ccsc1` (single isomer, unassigned) [Example 33B], the inhibition at 10 µM is under 50%.

As to `CCC(=O)N1N=C(c2c(C)c3ccsc3[nH]c2=O)CC1c1ccc(C)cc1` (single isomer, unassigned) [Example 37B], the inhibition at 10 µM is at least 50%.

Regarding `CCC(=O)N1N=C(c2c(C)c3ccsc3[nH]c2=O)CC1c1ccc(C)nc1` (single isomer, unassigned) [Example 45B], the inhibition at 10 µM is at least 50%.

With `CCC(=O)N1N=C(c2c(C)c3ccccc3[nH]c2=O)CC1c1ccc(C)cc1` (single isomer, unassigned) [Example 60B], the inhibition at 10 µM is at least 50%.

Turning to `CCC(=O)N1N=C(c2c(C)c3ccsc3[nH]c2=O)CC1c1ccc(C)cc1F` (single isomer, unassigned) [Example 66A], the inhibition at 10 µM was at least 50%.

On to `CCC(=O)N1N=C(c2c(C)c3ccncc3[nH]c2=O)CC1c1ccc(C)cc1` (single isomer, unassigned) [Example 74A], for which the inhibition at 10 µM is at least 50%.

Molecule `CCC(=O)N1N=C(c2c(C)c3ccnc(C)c3[nH]c2=O)CC1c1ccc(C)cc1` (single isomer, unassigned) [Example 78A] had an inhibition at 10 µM of under 50%.

`CCC(=O)N1N=C(c2c(C)c3ccc(Cl)cc3[nH]c2=O)CC1c1ccc(C)cc1` (single isomer, unassigned) [Example 80A] returned an inhibition at 10 µM of under 50%.

As to `CCC(=O)N1N=C(c2c(C)c3ccc(N4CCN(C)CC4)cc3[nH]c2=O)CC1c1ccc(C)cc1` (single isomer, unassigned) [Example 82A], the inhibition at 10 µM is at least 50%.

Regarding `CCC(=O)N1N=C(c2c(C)c3ccccc3[nH]c2=O)C[C@@H]1c1ccc(C)cc1` (stereo in doubt) [Example 60A, rel-(R)-4-methyl-3-(1-propionyl-5-(p-tolyl)-4,5-dihydro-1H-pyrazol-3-yl)quinolin-2-(1H)-one], the inhibition at 10 µM is at least 50%.

Staying with this assay, now noted: MDAMB231 cell line, 9 day treatment, separated enantiomers A/B (Table 3), 10 µM.
As to `CCC(=O)N1N=C(c2c(C)c3ccsc3[nH]c2=O)CC1c1ccc(C)nc1` (single isomer, unassigned) [Example 45A], the “% inhibition @ 10 μM” value is listed as “++ (<50% ++)”.

Turning to `CCC(=O)N1N=C(c2c(C)c3ccnc(C)c3[nH]c2=O)CC1c1ccc(C)cc1` (single isomer, unassigned) [Example 78B], the “% inhibition @ 10 μM” value is on record as “+ (≥50% +)”.

Consider `CCC(=O)N1N=C(c2c(C)c3ccc(Cl)cc3[nH]c2=O)CC1c1ccc(C)cc1` (single isomer, unassigned) [Example 80B], for which the “% inhibition @ 10 μM” value is recorded as “+ (≥50% +)”.

The term inhibition denotes how much of the control response was suppressed. Low values mean a weak effect, high ones a strong effect.
